pIC50: −log10 of the molar value. Read-outs that look alike come from different tables or passages of the source.

Data set [1] in a line: Mouse PK Assay. The class given is in vivo. The note with it: female, B6, plasma. On the procedure:
The pharmacokinetics (e.g., absorption and elimination) of drugs in mice were analyzed using the following experiment. Test compounds were formulated as a solution or suspension in a 30:70 (PEG 400: acidified H2O) vehicle or as a suspension in 0.5% CMC. This was administered orally (p.o.) and intraperitoneally (i.p.) at variable doses to two distinct groups (n=4) of B6 female mice. Blood samples were collected via an orbital bleed at time points: 0 hour (pre-dose), 0.5 h, 1.0 h, 2.0 h, and 4.0 h, and 7.0 h post dose. Plasma was obtained from each sample by centrifugation at 2500 rpm for 5 min. Test compound was extracted from the plasma by an organic protein precipitation method. For each time bleed 50 μL of plasma was combined with 1.0 mL of acetonitrile, vortexed for 2 min. and then spun at 4000 rpm for 15 min. to precipitate the protein and extract out the test compound. […] Test-compound plasma concentrations (μg/mL) were determined by a comparison to standard curve (peak area vs. conc. μg/mL) using known concentrations of test compound extracted from plasma samples in the manner described above. […] The quantitated test samples were plotted for visual display using Kalidagraph software and their pharmacokinetic parameters were determined using WIN NONLIN software. […]

Data set [2] relates to human umbilical vein endothelial cells (HUVEC). Nature of the data set: HUVEC Proliferation Assay (VEGF-stimulated). The class given is cell-based. On the procedure: (§1) This assay determines the ability of a test compound to inhibit the growth factor-stimulated proliferation of human umbilical vein endothelial cells (“HUVEC”). HUVEC cells (passage 3–4, Clonetics, Corp.) were thawed into EGM2 culture medium (Clonetics Corp) in T75 flasks. Fresh EGM2 medium was added to the flasks 24 hours later. Four or five days later, cells were exposed to another culture medium (F12K medium supplemented with 10% fetal bovine serum (FBS), 60 μg/mL endothelial cell growth supplement (ECGS), and 0.1 mg/mL heparin). Exponentially-growing HUVEC cells were used in experiments thereafter. Ten to twelve thousand HUVEC cells were plated in 96-well dishes in 100 μl of rich, culture medium (described above). The cells were allowed to attach for 24 hours in this medium. The medium was then removed by aspiration and 105 μl of starvation media (F12K+1% FBS) was added to each well. After 24 hours, 15 μl of test agent dissolved in 1% DMSO in starvation medium or this vehicle alone was added into each treatment well; the final DMSO concentration was 0.1%. One hour later, 30 μl of VEGF (30 ng/mL) in starvation media was added to all wells except those containing untreated controls; the final VEGF concentration was 6 ng/mL. Cellular proliferation was quantified 72 hours later by MTT dye reduction, at which time cells were exposed for 4 hours MTT (Promega Corp.). Dye reduction was stopped by addition of a stop solution (Promega Corp.) and absorbance at 595λ was determined on a 96-well spectrophotometer plate reader.
(§2) IC50 values were calculated by curve-fitting the response of A^595 to various concentrations of the test agent; typically, seven concentrations separated by 0.5 log were employed, with triplicate wells at each concentration. For screening compound library plates, one or two concentrations (one well per concentration) were employed, and the % inhibition was calculated by the following formula: % inhibition=(control−test)[…](control−starvation) where
control=A^595 when VEGF is present without test agent
test=A^595 when VEGF is present with test agent
starvation=A^595 when VEGF and test agent are both absent.

For data set [3], the system named is HUVEC. Put plainly: HUVEC + albumin proliferation. The class given is cell-based. The following applies: Homo sapiens, 72 h, with albumin. How it is done: as §1, §2
The target of data set [4] is T1, FGF-R1 (Homo sapiens, UniProt P11362, C488A/C584S/L457V).
T1 construct: starting from the endogenous methionine residue 456 to glutamate 766; made in house; host or cells: baculovirus vector expression system
Put plainly: Fibroblast Growth Factor (FGF-R) spectrophotometric assay. It counts as biochemical. The following applies: 1 μM compound; read-out: FGF-P % inhibit @1 μM. The source says: The intracellular kinase domain of human FGF-R1 was expressed using the baculovirus vector expression system starting from the endogenous methionine residue 456 to glutamate 766, according to the residue numbering system of Mohammadi et al., Mol. Cell. Biol., 16, 977–989 (1996). In addition, the construct also has the following 3 amino acid substitutions: L457V, C488A, and C584S.
(§3) The production of ADP from ATP that accompanies phosphoryl transfer was coupled to oxidation of NADH using phosphoenolpyruvate (PEP) and a system having pyruvate kinase (PK) and lactic dehydrogenase (LDH). The oxidation of NADH was monitored by following the decrease of absorbance at 340 nm (e340=6.22 cm^−1 mM^−1) using a Beckman DU 650 spectrophotometer. Assay conditions for phosphorylated VEGF-R2A50 (indicated as FLVK-P in the tables below) were the following: 1 mM PEP; 250 μM NADH; 50 units of LDH/mL; 20 units of PK/mL; 5 mM DTT; 5.1 mM poly(E4Y1); 1 mM ATP; and 25 mM MgCl2 in 200 mM HEPES, pH 7.5. Assay conditions for unphosphorylated VEGF-R2Δ50 (indicated as FLVK in the tables) were the following: 1 mM PEP; 250 μM NADH; 50 units of LDH/mL; 20 units of PK/mL; 5 mM DTT; […]; 3 mM ATP; and 60 mM MgCl2 and 2 mM MnCl2 in 200 mM HEPES, pH 7.5. Assays were initiated with 5 to 40 nM of enzyme. Ki values were determined by measuring enzyme activity in the presence of varying concentrations of test compounds. The data were analyzed using Enzyme Kinetic and Kaleidagraph software.
The spectrophotometric assay was carried out as described above for VEGF-R2, except for the following changes in concentration: FGF-R=50 nM, ATP=2 mM, and poly(E4Y1)=15 mM.

Data set [5] addresses T2, LCK (Homo sapiens, UniProt P06239, C224D/P223M).
T2 construct: starting from amino acid residue 223 to the end of the protein at residue 509; made in house; host or cells: insect cells
Put plainly: Lymphocyte-Specific Protein-Tyrosine Kinase (LCK) spectrophotometric assay. The class given is biochemical. The note with it: 1 μM compound; read-out: LckP* % inhibit @1 μM.

Data set [6] can be described thus: Human Liver Microsome (HLM) Assay. It counts as in vitro ADME. The note with it: @0.5 h. How it is done: Compound metabolism in human liver microsomes was measured by LC-MS analytical assay procedures as follows. First, human liver microsomes (HLM) were thawed and diluted to 5 mg/mL with cold 100 mM potassium phosphate (KPO4) buffer. Appropriate amounts of KPO4 buffer, NADPH-regenerating solution (containing B-NADP, glucose-6-phosphate, glucose-6-phosphate dehydrogenase, and MgCl2), and HLM were preincubated in 13×100 mm glass tubes at 37 C. for 10 min. (3 tubes per test compound—triplicate). Test compound (5 µM final) was added to each tube to initiate reaction and was mixed by gentle vortexing, followed by incubation at 37° C. […] Samples were centrifuged at 4000 rpm for 20 min. to precipitate proteins and salt (Beckman Allegra 6KR, S/N ALK98DO6, #634). Supernatant was transferred to new 12×75 mm glass tubes and evaporated by Speed-Vac centrifugal vacuum evaporator. Samples were reconstituted in 200 μL 0.1% formic acid/acetonitrile (90/10) and vortexed vigorously to dissolve. The samples were then transferred to separate polypropylene microcentrifuge tubes and centrifuged at 14000×g for 10 min. (Fisher Micro 14, S/N M0017580). […]
The combined compound samples were injected into the LC-MS system, composed of a Hewlett-Packard HP 1100 diode array HPLC and a Micromass Quattro II triple quadruple mass spectrometer operating in positive electrospray SIR mode (programmed to scan specifically for the molecular ion of each test compound. Each test compound peak was integrated at each timepoint. […]

The target in data set [7] is T3, unphosphorylated VEGF-R2Δ50 (Homo sapiens, UniProt P35968, DEL940-989/E990V).
T3 construct: VEGF-R2Δ50 contains residues 806–939 and 990–1171; made in house; host or cells: baculovirus/insect cell system
Put plainly: VEGF-R2 coupled spectrophotometric assay, unphosphorylated construct (FLVK). The following applies: % inhibition at 50 nM compound; read-out: FLVK Ki % inh @ 50 nM. The class given is biochemical.
Source text: This construct determines the ability of a test compound to inhibit tyrosine kinase activity. A construct (VEGF-R2Δ50) of the cytosolic domain of human vascular endothelial growth factor receptor 2 (VEGF-R2) lacking the 50 central residues of the 68 residues of the kinase insert domain was expressed in a baculovirus/insect cell system. Of the 1356 residues of full-length VEGF-R2, VEGF-R2Δ50 contains residues 806–939 and 990–1171, and also one point mutation (E99OV) within the kinase insert domain relative to wild-type VEGF-R2. Autophosphorylation of the purified construct was performed by incubation of the enzyme at a concentration of 4 μM in the presence of 3 mM ATP and 40 mM MgCl2 in 100 mM HEPES, pH 7.5, containing 5% glycerol and 5 mM DTT, at 4° C. for 2 h. […] See Parast et al., Biochemistry, 37,16788–16801 (1998).
as §3

In data set [8] the test system is HUVEC. Put plainly: bFGF Huvec. It counts as cell-based. The following applies: Homo sapiens.
For data set [9], the target named is T4, PDGFRβ (Homo sapiens, UniProt P09619).
T4 construct: expressed in transfected cells; host or cells: porcine aorta endothelial (PAE) cells
Nature of the data set: PAE-PDGFRβ Phosphorylation in PAE-PDGFRB Cells Assay. It counts as cell-based. The note with it: PAE cells overexpressing human PDGFRβ; read-out: PAE PDGFR autophos IC50. How it is done: This assay determines the ability of a test compound to inhibit the autophosphorylation of PDGFRβ in porcine aorta endothelial (PAE)-PDGFRβ cells. PAE cells that overexpress human PDGFRβ were used in this assay. The cells were cultured in Ham's F12 media supplemented with 10% fetal bovine serum (FBS) and 400 ug/ml G418. Twenty thousands cells were seeded in each well of a 96-well plate in 50 μL of growth media and allowed to attach for 6 hours at 37° C. Cells were then exposed to the starvation media (Ham's F12 media supplemented with 0.1% FBS) for 16 hours. After the starvation period was over, 10 μL of test agent in 5% DMSO in starvation media were added to the test wells and 10 μL of the vehicle (5% DMSO in starvation media) were added into the control wells. The final DMSO concentration in each well was 0.5%. Plates were incubated at 37° C. for 1 hour and the cells were then stimulated with 1 μg/mL PDGF-BB (R & D System) in the presence of 2 mM Na3VO4 for 8 minutes. The cells were washed once with 1 mm Na3VO4 in HBSS and lysed by adding 50 μL per well of lysis buffer. One hundred μL of dilution buffer were then added to each well and the diluted cell lysate was transferred to a 96-well goat ant-rabbit coated plate (Pierce), which was pre-coated with Rabbit anti Human PDGFRβ antibody (Santa Cruz). The plates were incubated at room temperature for 2 hours and washed seven times with 1% Tween 20 in PBS. HRP-PY20 (Santa Cruz) was diluted and added to the plate for a 30-minute incubation. Plates were then washed again and TMB peroxidase substrate (Kirkegaard & Perry) was added for a 10-minute incubation. One hundred μL of 0.09 N H2SO4 was added into each well of the 96-well plate to stop the reaction. Phosphorylation status was assessed by spectrophotometer reading at 450 nm. IC50 values were calculated by curve fitting using a four-parameter analysis.

T1 sequence (P11362 456-766 L457V/C488A/C584S): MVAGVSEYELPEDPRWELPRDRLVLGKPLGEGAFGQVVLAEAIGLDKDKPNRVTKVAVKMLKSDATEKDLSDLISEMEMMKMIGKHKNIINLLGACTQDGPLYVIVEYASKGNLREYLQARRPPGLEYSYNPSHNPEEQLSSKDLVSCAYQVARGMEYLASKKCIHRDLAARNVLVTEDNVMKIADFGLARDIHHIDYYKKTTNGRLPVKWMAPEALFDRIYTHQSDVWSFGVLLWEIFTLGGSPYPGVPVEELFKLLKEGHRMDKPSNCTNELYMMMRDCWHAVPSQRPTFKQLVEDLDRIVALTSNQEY
T2 sequence (P06239 223-509 P223M/C224D): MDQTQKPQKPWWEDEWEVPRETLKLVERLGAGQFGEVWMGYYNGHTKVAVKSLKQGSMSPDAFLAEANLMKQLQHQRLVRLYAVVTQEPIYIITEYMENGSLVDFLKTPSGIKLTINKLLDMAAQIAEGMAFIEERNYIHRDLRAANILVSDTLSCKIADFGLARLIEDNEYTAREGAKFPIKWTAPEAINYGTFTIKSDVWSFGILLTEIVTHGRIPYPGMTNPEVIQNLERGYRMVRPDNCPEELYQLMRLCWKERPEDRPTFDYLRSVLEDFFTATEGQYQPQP
T3 sequence (P35968 with tags, fused parts or gaps DEL940-989/E990V limits assumed): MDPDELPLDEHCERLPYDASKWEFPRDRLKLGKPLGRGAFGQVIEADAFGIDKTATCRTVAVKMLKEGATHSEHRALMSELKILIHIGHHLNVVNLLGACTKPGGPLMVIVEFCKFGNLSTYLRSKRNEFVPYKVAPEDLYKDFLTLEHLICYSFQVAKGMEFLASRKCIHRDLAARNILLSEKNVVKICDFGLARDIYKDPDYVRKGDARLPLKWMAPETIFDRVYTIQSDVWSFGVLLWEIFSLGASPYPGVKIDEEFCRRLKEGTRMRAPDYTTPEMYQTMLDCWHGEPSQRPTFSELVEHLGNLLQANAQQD
T4 sequence (P09619 33-1106): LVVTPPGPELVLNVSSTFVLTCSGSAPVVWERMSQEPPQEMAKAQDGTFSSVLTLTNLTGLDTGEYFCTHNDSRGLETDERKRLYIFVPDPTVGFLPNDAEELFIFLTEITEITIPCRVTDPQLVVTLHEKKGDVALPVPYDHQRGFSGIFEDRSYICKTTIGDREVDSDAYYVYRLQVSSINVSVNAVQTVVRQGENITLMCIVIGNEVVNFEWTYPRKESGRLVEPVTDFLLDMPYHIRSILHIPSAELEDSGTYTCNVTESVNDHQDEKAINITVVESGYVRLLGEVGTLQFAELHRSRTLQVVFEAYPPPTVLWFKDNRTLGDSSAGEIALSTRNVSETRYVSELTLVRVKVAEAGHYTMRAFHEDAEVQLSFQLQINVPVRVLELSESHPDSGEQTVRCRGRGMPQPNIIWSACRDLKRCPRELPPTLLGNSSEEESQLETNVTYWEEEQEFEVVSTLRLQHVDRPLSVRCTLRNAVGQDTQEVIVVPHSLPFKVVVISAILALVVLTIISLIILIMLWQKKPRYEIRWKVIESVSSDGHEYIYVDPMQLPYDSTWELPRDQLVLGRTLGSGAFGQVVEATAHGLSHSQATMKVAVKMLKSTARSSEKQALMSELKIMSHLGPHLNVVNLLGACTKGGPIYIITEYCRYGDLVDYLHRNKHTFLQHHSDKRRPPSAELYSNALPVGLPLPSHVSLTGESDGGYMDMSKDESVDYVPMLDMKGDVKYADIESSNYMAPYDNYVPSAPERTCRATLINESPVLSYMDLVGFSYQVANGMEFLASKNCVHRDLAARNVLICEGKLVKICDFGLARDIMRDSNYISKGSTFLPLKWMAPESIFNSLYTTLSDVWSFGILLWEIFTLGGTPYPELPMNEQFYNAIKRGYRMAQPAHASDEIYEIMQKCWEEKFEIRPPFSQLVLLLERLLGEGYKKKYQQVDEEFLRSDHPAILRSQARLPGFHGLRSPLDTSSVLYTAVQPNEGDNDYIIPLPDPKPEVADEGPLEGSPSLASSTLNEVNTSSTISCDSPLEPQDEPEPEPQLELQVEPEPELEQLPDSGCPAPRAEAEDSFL

Broadly, the AUC is the area under the concentration-time curve, a measure of exposure. Turning to `COC(=O)C(C(=O)OC)c1ccc(Cl)cc1[N+](=O)[O-]` [Example 1(a), 2-(4-Chloro-2-nitro-phenyl)-malonic acid dimethyl ester], the AUC came to 690 ng·h/mL in data set [1] (ip, intraperitoneal, read-out: Mouse pK, AUC, ip) and 330 ng·h/mL in data set [1] (oral, read-out: Mouse pK, AUC, po).

A word on the pIC50: it is the IC50 on a negative log10 scale, so that one unit is a factor of ten. On to `CC(C)ONC(=O)c1ccccc1Nc1ccc2c(/C=C/c3ccccn3)n[nH]c2c1` [Example 3(c), N-Isopropoxy-2-[3-((E)-2-pyridin-2-yl-vinyl)-1H-indazol-6-ylamino]-benzamide], for which the results for the pIC50 in [2] and in [3] were 9.37 and 8.04, respectively. The inhibition at 1 µM turned out to be 83% in data set [4] and 9% in data set [5]. In data set [6], the “% remaining (HLM)” value is on record as 46@0.5 h %. For the same molecule, the inhibition at 0.05 µM in [7] stood at 91%.

Broadly, the IC50 is the concentration that inhibits the measured activity by half. Higher therefore signals weaker potency. In data set [8], `O=C(NCc1ccco1)c1ccccc1Nc1ccc2c(/C=C/c3ccccn3)n[nH]c2c1` [Example 3(i), N-Furan-2-ylmethyl-2-[3-((E)-2-pyridin-2-yl-vinyl)-1H-indazol-6-ylamino]-benzamide] returned an IC50 of 1000 nM. Further, the pIC50 was 9.70 in [2] and 8.72 in data set [9]. The inhibition at 1 µM in [4] stood at 45%; in data set [5], 22%. The inhibition at 0.05 µM in [7] is 88%.

For the molecule `Cn1cccc1C(=O)NNC(=O)c1ccccc1Nc1ccc2c(/C=C/c3ccccn3)n[nH]c2c1` [Example 3(f)], the pIC50 in [3] was < 7.00. The inhibition at 1 µM in data set [4] amounted to 60%; in [5], 41%. In addition, in data set [7], the inhibition at 0.05 µM was 95%.

For `Cc1ccnc(/C=C/c2n[nH]c3cc(Nc4ccccc4C(=O)NCc4ccncc4)ccc23)c1` [Example 38, 2-{3-[2-(4-Methyl-pyridin-2-yl)-vinyl]-1H-indazol6-ylamino}-N-pyridin-4-ylmethyl-benzamide], the pIC50 was 8.70 in data set [9] and 9.17 in data set [3]. For the same molecule, in data set [7], the inhibition at 0.05 µM was determined as 75%.

These data come from US7053107B2, “Indazole compounds and pharmaceutical compositions for inhibiting protein kinases, and methods for their use” (Agouron Pharmaceuticals, Inc., priority 2002, dated 2006).
